# Reference: PubChem BioAssay (NCI)
#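 Dose response: 5 concentrations. Exposure: 48 h. Format: 96-well plates. Endpoint: linear interpolation; highest concentration if not reached. Abbreviation: GI50, concentration required for 50% inhibition of growth. TGI: total growth inhibition.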
# Legend:
# Assay in all cases: growth of human tumour cells (NCI), 48 h
# NCI-H522 lung = tested on: NCI-H522 lung
# A498 renal = tested on: A498 renal
# CAKI-1 renal = tested on: CAKI-1 renal
# HOP-92 NSCLC = tested on: HOP-92 NSCLC
# KM12 colon = tested on: KM12 colon
# SF-268 CNS = tested on: SF-268 CNS
# BT-549 breast = tested on: BT-549 breast
# HL-60(TB) leukemia = tested on: HL-60(TB) leukemia
# SF-295 CNS = tested on: SF-295 CNS
# SR leukemia = tested on: SR leukemia
# RXF 393 renal = tested on: RXF 393 renal
# M14 melanoma = tested on: M14 melanoma
# NCI-H460 lung = tested on: NCI-H460 lung
# SN12C renal = tested on: SN12C renal
# OVCAR-5 ovarian = tested on: OVCAR-5 ovarian
# A549 NSCLC = tested on: A549 NSCLC
# SK-OV-3 ovarian = tested on: SK-OV-3 ovarian
# NCI-H23 lung = tested on: NCI-H23 lung
# MALME-3M melanoma = tested on: MALME-3M melanoma
# K-562 leukemia = tested on: K-562 leukemia
# HOP-62 NSCLC = tested on: HOP-62 NSCLC
# HCT-15 colon = tested on: HCT-15 colon
# MOLT-4 leukemia = tested on: MOLT-4 leukemia
# SF-539 CNS = tested on: SF-539 CNS
# RPMI-8226 leukemia = tested on: RPMI-8226 leukemia
# SNB-19 CNS = tested on: SNB-19 CNS
# HS 578T breast = tested on: HS 578T breast
# SK-MEL-2 melanoma = tested on: SK-MEL-2 melanoma
# DU-145 prostate = tested on: DU-145 prostate
# OVCAR-3 ovarian = tested on: OVCAR-3 ovarian
# SNB-75 CNS = tested on: SNB-75 CNS
# TK-10 renal = tested on: TK-10 renal
# T-47D breast = tested on: T-47D breast
# CCRF-CEM leukemia = tested on: CCRF-CEM leukemia
# HCC-2998 colon = tested on: HCC-2998 colon
# 786-0 renal = tested on: 786-0 renal
# MDA-MB-468 breast = tested on: MDA-MB-468 breast
# PC-3 prostate = tested on: PC-3 prostate
# IGROV1 ovarian = tested on: IGROV1 ovarian
# OVCAR-8 ovarian = tested on: OVCAR-8 ovarian
# SK-MEL-28 melanoma = tested on: SK-MEL-28 melanoma
# UACC-62 melanoma = tested on: UACC-62 melanoma
# HT29 colon = tested on: HT29 colon
# EKVX NSCLC = tested on: EKVX NSCLC
# MDA-MB-231 breast = tested on: MDA-MB-231 breast
# MDA-MB-435 = tested on: MDA-MB-435
# ACHN renal = tested on: ACHN renal
# HCT-116 colon = tested on: HCT-116 colon
# LOX IMVI melanoma = tested on: LOX IMVI melanoma
# COLO 205 colon = tested on: COLO 205 colon
# NCI-H226 lung = tested on: NCI-H226 lung
# SW-620 colon = tested on: SW-620 colon
# UO-31 renal = tested on: UO-31 renal
# U251 CNS = tested on: U251 CNS
# OVCAR-4 ovarian = tested on: OVCAR-4 ovarian
# UACC-257 melanoma = tested on: UACC-257 melanoma
# MCF7 breast = tested on: MCF7 breast
# SK-MEL-5 melanoma = tested on: SK-MEL-5 melanoma
smiles,measurement,setting,value
O=C(c1ccc(O)cc1)C1[C@H](c2ccccc2Br)[C@@H](c2ccccc2)NC12C(=O)Nc1ccc(Cl)cc12 (stereo partly specified),GI50,NCI-H522 lung,2.23 µM
same,TGI,NCI-H522 lung,8.45 µM
same,GI50,A498 renal,6.57 µM
same,TGI,A498 renal,13.9 µM
same,GI50,CAKI-1 renal,2 µM
same,TGI,CAKI-1 renal,8.85 µM
same,GI50,HOP-92 NSCLC,3.03 µM
same,TGI,HOP-92 NSCLC,11.6 µM
same,GI50,KM12 colon,2.91 µM
same,TGI,KM12 colon,11.1 µM
same,GI50,SF-268 CNS,3.99 µM
same,TGI,SF-268 CNS,13.4 µM
same,GI50,BT-549 breast,2.19 µM
same,TGI,BT-549 breast,9.37 µM
same,GI50,HL-60(TB) leukemia,5.86 µM
same,TGI,HL-60(TB) leukemia,20.3 µM
same,GI50,SF-295 CNS,4.98 µM
same,TGI,SF-295 CNS,12.5 µM
same,GI50,SR leukemia,2.01 µM
same,TGI,SR leukemia,9.34 µM
same,GI50,RXF 393 renal,2.86 µM
same,TGI,RXF 393 renal,10.5 µM
same,GI50,M14 melanoma,4.77 µM
same,TGI,M14 melanoma,12.4 µM
same,GI50,NCI-H460 lung,4.72 µM
same,TGI,NCI-H460 lung,12.7 µM
same,GI50,SN12C renal,1.7 µM
same,TGI,SN12C renal,6.32 µM
same,GI50,OVCAR-5 ovarian,6.25 µM
same,TGI,OVCAR-5 ovarian,13 µM
same,GI50,A549 NSCLC,3.43 µM
same,TGI,A549 NSCLC,11.2 µM
same,GI50,SK-OV-3 ovarian,7.69 µM
same,TGI,SK-OV-3 ovarian,15.4 µM
same,GI50,NCI-H23 lung,6.65 µM
same,TGI,NCI-H23 lung,14.4 µM
same,GI50,MALME-3M melanoma,7.89 µM
same,TGI,MALME-3M melanoma,15.3 µM
same,GI50,K-562 leukemia,3.75 µM
same,TGI,K-562 leukemia,17.9 µM
same,GI50,HOP-62 NSCLC,7.08 µM
same,TGI,HOP-62 NSCLC,14.9 µM
same,GI50,HCT-15 colon,6.63 µM
same,TGI,HCT-15 colon,16.1 µM
same,GI50,MOLT-4 leukemia,2.2 µM
same,TGI,MOLT-4 leukemia,11.4 µM
same,GI50,SF-539 CNS,6.11 µM
same,TGI,SF-539 CNS,12.8 µM
same,GI50,RPMI-8226 leukemia,3.29 µM
same,TGI,RPMI-8226 leukemia,43.8 µM
same,GI50,SNB-19 CNS,5.97 µM
same,TGI,SNB-19 CNS,12.6 µM
same,GI50,HS 578T breast,6.2 µM
same,TGI,HS 578T breast,22.6 µM
same,GI50,SK-MEL-2 melanoma,6.49 µM
same,TGI,SK-MEL-2 melanoma,13.8 µM
same,GI50,DU-145 prostate,8.01 µM
same,TGI,DU-145 prostate,16.5 µM
same,GI50,OVCAR-3 ovarian,2.76 µM
same,TGI,OVCAR-3 ovarian,9.34 µM
same,GI50,SNB-75 CNS,1.44 µM
same,TGI,SNB-75 CNS,8.12 µM
same,GI50,TK-10 renal,7.76 µM
same,TGI,TK-10 renal,16 µM
same,GI50,T-47D breast,5.51 µM
same,TGI,T-47D breast,14.9 µM
same,GI50,CCRF-CEM leukemia,3.49 µM
same,TGI,CCRF-CEM leukemia,16.5 µM
same,GI50,HCC-2998 colon,2.42 µM
same,TGI,HCC-2998 colon,9.01 µM
same,GI50,786-0 renal,6.57 µM
same,TGI,786-0 renal,13.7 µM
same,GI50,MDA-MB-468 breast,1.61 µM
same,TGI,MDA-MB-468 breast,6.96 µM
same,GI50,PC-3 prostate,2.8 µM
same,TGI,PC-3 prostate,11.3 µM
same,GI50,IGROV1 ovarian,2.3 µM
same,TGI,IGROV1 ovarian,9.11 µM
same,GI50,OVCAR-8 ovarian,6.72 µM
same,TGI,OVCAR-8 ovarian,14.6 µM
same,GI50,SK-MEL-28 melanoma,7.51 µM
same,TGI,SK-MEL-28 melanoma,14.7 µM
same,GI50,UACC-62 melanoma,5.71 µM
same,TGI,UACC-62 melanoma,12.2 µM
same,GI50,HT29 colon,7.36 µM
same,TGI,HT29 colon,17.9 µM
same,GI50,EKVX NSCLC,6.65 µM
same,TGI,EKVX NSCLC,15.4 µM
same,GI50,MDA-MB-231 breast,4.68 µM
same,TGI,MDA-MB-231 breast,11.8 µM
same,GI50,MDA-MB-435,4.78 µM
same,TGI,MDA-MB-435,12.9 µM
same,GI50,ACHN renal,5.39 µM
same,TGI,ACHN renal,11.8 µM
same,GI50,HCT-116 colon,4.12 µM
same,TGI,HCT-116 colon,11.4 µM
same,GI50,LOX IMVI melanoma,5.53 µM
same,TGI,LOX IMVI melanoma,13.1 µM
same,GI50,COLO 205 colon,7.35 µM
same,TGI,COLO 205 colon,15.7 µM
same,GI50,NCI-H226 lung,1.57 µM
same,TGI,NCI-H226 lung,6.22 µM
same,GI50,SW-620 colon,6.73 µM
same,TGI,SW-620 colon,14.8 µM
same,GI50,UO-31 renal,3.26 µM
same,TGI,UO-31 renal,10.9 µM
same,GI50,U251 CNS,3.46 µM
same,TGI,U251 CNS,10.8 µM
same,GI50,OVCAR-4 ovarian,4.69 µM
same,TGI,OVCAR-4 ovarian,13.7 µM
same,GI50,UACC-257 melanoma,6.51 µM
same,TGI,UACC-257 melanoma,13.5 µM
same,GI50,MCF7 breast,3.17 µM
same,TGI,MCF7 breast,13.7 µM
same,GI50,SK-MEL-5 melanoma,8.68 µM
same,TGI,SK-MEL-5 melanoma,16.8 µM
